Target: T1, HIV-1 protease wild type protein (Human immunodeficiency virus type 1 group M subtype B, UniProt P04585)
T1 construct: 20 μl of 0.2−1 nM HIV-1 protease wild type or mutant protein; purchased AscoProt Biotech, Prague, Czech Republic
Test: Biochemical Protease Assay
Experimental: For the determination of their in vitro activity on HIV protease the test substances are dissolved in DMSO and serially diluted. In each case 0.5 μl of substance dilution, 20 μl of 0.2−1 nM HIV-1 protease wild type or mutant protein (e.g. multiresistant isolate “35513”: L10I, I15V, L19I, K20R, E35D, M36I, R41K, I54V, L63P, H69K, A71V, T74P, I84V, L89M, L90M, 193L, AscoProt Biotech, Prague, Czech Republic) in buffer 1 (50 mM sodium acetate pH 4.9, 0.02% BSA, 0.1 mM EDTA, 0.5 mM DTT) and 20 μl of 8 μM substrate (M1865 from Bachem, Bubendorf, Switzerland; Matayoshi et al., Science 1990, 247, 954-8) in buffer 1 are added successively to a 384 well microtiter plate (Greiner, Frickenhausen, Germany), incubated for 60-180 minutes at 32° C. and the fluorescence is measured (e.g. Tecan Safire, 340 nm extinction, 520 nm emission). IC50 values are determined by graphical plotting of the substance concentration against the percentage inhibition.

| Structure (SMILES) | IC50 [nM] |
| --- | --- |
| Cc1cc(-c2cccc(S(C)(=O)=O)c2)c(Cl)cc1C1=C(N)[C@@]2(CCCN(CC(=O)NCc3ccccc3)C2)OC1=O (single isomer, unassigned) [Example 82] | 11 |
| Cc1cc(-c2cccc(O)c2)c(Cl)cc1C1=C(N)C2(CCCN(CC(=O)NCc3ccccc3)C2)OC1=O (stereo not drawn) [Example 27] | 14 |
| Cc1cc(-c2cccc(S(C)(=O)=O)c2)c(Cl)cc1C1=C(N)C2(CCCN(CC(=O)NCc3cccc(F)c3F)C2)OC1=O (stereo not drawn) [Example 51] | 2.6 |
| CCC(C)CNC(=O)CN1CCCC2(C1)OC(=O)C(c1cc(Cl)c(-c3cccc(S(C)(=O)=O)c3)cc1C)=C2N (stereo not drawn) [Example 79] | 85 |
| Cc1cc(-c2cccc(NS(=O)(=O)CCN3CCOCC3)c2)c(Cl)cc1C1=C(N)C2(CCCCC2)OC1=O [Example 20] | 510 |
| Cc1cc(-c2cccc(S(C)(=O)=O)c2)c(Cl)cc1C1=C(N)[C@@]2(CCCN(CC(=O)NCc3cccs3)C2)OC1=O (single isomer, unassigned) [Example 84] | 2.5 |

Reference: patent publication US20100105673A1, “SUBSTITUTED AMINOFURANONES AND THEIR USE” (priority 2006, published 2010)
